Results from PMC12057046, “Elucidation of short linear motif-based interactions of the MIT and rhodanese domains of the ubiquitin-specific protease 8” (Biology Direct, 2025).

Test system: USP8 MIT domain
Test: Peptide-phage display-based deep mutational scanning (DMS), USP8 MIT domain
Assay type: binding, human
Conditions: bait USP8_MIT__P40818_1_142, sheet S3.B_ProP-PD_pairs
Protocol: The residues of these 16 amino acid-long wild-type peptides were substituted to all natural amino acid residues, except cysteine, in all positions (Supplementary Table S2A). The designed peptide sequences were reverse-translated to oligonucleotides optimized to the codon usage of E. coli. The required flanking regions (5´[…] and 3´[…]) were added for library construction. The library was generated as previously described.
Four rounds of phage selections were carried out using the second generation human disorderome library or the constructed deep mutational scanning library. At least three individual replicates were used for each bait protein. 10 µg of GST-tagged proteins or GST control (diluted in PBS from the stock of proteins kept in the purification elution buffer) were immobilized in 100 µL PBS on a 96-well MaxiSorp (Nunc) plate overnight at 4 °C. The plates were incubated with blocking buffer (with 0.5% BSA in PBS) for 1 h at 4 °C followed by washing with 0.05% Tween 20 in PBS four times. The naïve phage library (10^11 CFU) was diluted in 1/5th volume PEG/NaCl (20% PEG-8000, 0.4 M NaCl) and 1X PBS, incubated on ice for 10 min and centrifuged at 10,000 [drawing 3] g for 10 min. The pellet was resuspended in the volume of PBS (100 µL/ well). The GST-coated control plate was incubated with 100 µL library per well in PBS for 1 h at 4 °C to remove non-specific binders. The supernatant was transferred to the target wells and incubated for 2 h at 4 °C. The wells were washed five times with 0.05% Tween 20 in PBS and the bound phages were eluted with 100 µL per well log-phase E. coli OmniMAX by incubating at 37° C while shaking. After 30 min, M13KO7 helper phages were added and incubated for an additional 45 min. The bacterial cultures were transferred to 1 mL 2YT supplemented with 100 µg/mL carbenicillin, 30 µg/mL kanamycin and 0.3 mM IPTG and grew overnight at 37 °C while shaking. The following day the cultures were centrifuged for 10 min at 2,000 [drawing 4] g, 4 °C. 1/10th volume of 10 [drawing 5] PBS was added to adjust the pH and heated at 65 °C for 10 min. The phage pools from each round were used as in-phages for the next round of selections.
The samples were prepared for NGS as previously described. Peptide-coding regions of the enriched phage pools were amplified and barcoded using Phusion High-Fidelity PCR Master Mix (Thermo Fisher) for 22 cycles and confirmed by 2% agarose gel electrophoresis. The PCR products were normalized with 25 µL Mag-bind Total Pure NGS beads (Omega Biotek) and 10 µL of each eluted sample (Qiagen Elution Buffer) was pooled and cleaned-up with a PCR purification kit (Qiagen). The PCR product was confirmed by 2% agarose electrophoresis and the band was extracted with QIAquick Gel extraction Kit (Qiagen) and eluted with 30 µL TE buffer. The dsDNA was quantified using QuantiT PicoGreen dsDNA Assay Kit (Thermo Fisher) and sent for NGS (Illumina MiSeq v3, 1 × 150 bp read setup, 20% PhiX, NGI SciLifeLab facility, Sweden). The NGS data were demultiplexed, adapter regions were trimmed and sequences with an average quality of at least 20 were translated to peptide sequences. The NGS data were analysed using custom Python scripts. The total read NGS counts for each selection experiment of each peptide sequence were compiled and annotated in PepTools (https://slim.icr.ac.uk/tools/peptools/). Since ProP-PD is in essence a competition assay, the possibility of the input phage library influencing the selection outcome was explored. For this, the Pearson correlation coefficient, p-value and coefficient of determination were calculated for all peptide NGS count fractions in the library coverage vs. in the selections results (Supplementary Fig. S7; Supplementary Table S2B; Supplementary Table S3B; Supplementary Table S7B). Pearson correlation coefficient and p-value were calculated using Python’s SciPy library. […]

[1] = EFCAB12 (Q6NXP0) 2-17, pair of mutant with wild-type wt_00016 (MDDDYEAYHSLFLSLL)
[2] = ratio within the wild-type/mutant pair, larger over smaller averaged fraction (direction from fraction_wt and fraction_mut)

Sequence	hit_pair_ratio [1]	hit_pair_ratio [2]
MDDDYYAYHSLFLSLL [mut_04428]	1.20	–
MDDEYEAYHSLFLSLL [mut_04376]	3.28	–
MDDFYEAYHSLFLSLL [mut_04377]	337.92	–
MDDGYEAYHSLFLSLL [mut_04378]	3.46	–
MDDHYEAYHSLFLSLL [mut_04379]	28.27	–
MDDKYEAYHSLFLSLL [mut_04381]	84.82	–
MDDLYEAYHSLFLSLL [mut_04382]	337.92	–
MDDNYEAYHSLFLSLL [mut_04384]	33.79	–
MDDPYEAYHSLFLSLL [mut_04385]	4.13	–
MDDQYEAYHSLFLSLL [mut_04386]	42.28	–
MDDRYEAYHSLFLSLL [mut_04387]	84.48	–
MDDSYEAYHSLFLSLL [mut_04388]	4.76	–
MDDTYEAYHSLFLSLL [mut_04389]	15.92	–
MDDWYEAYHSLFLSLL [mut_04391]	51.65	–
MDDYYEAYHSLFLSLL [mut_04392]	56.39	–
MDEDYEAYHSLFLSLL [mut_04358]	3.08	–
MDFDYEAYHSLFLSLL [mut_04359]	112.94	–
MDGDYEAYHSLFLSLL [mut_04360]	5.59	–
MDHDYEAYHSLFLSLL [mut_04361]	6.06	–

Sequence	hit_pair_ratio [1]	hit_pair_ratio [2]
MDIDYEAYHSLFLSLL [mut_04362]	337.92	–
MDLDYEAYHSLFLSLL [mut_04364]	2.51	–
MDMDYEAYHSLFLSLL [mut_04365]	84.82	–
MDNDYEAYHSLFLSLL [mut_04366]	19.88	–
MDPDYEAYHSLFLSLL [mut_04367]	337.92	–
MDQDYEAYHSLFLSLL [mut_04368]	8.05	–
MDSDYEAYHSLFLSLL [mut_04370]	42.24	–
MDTDYEAYHSLFLSLL [mut_04371]	112.94	–
MDVDYEAYHSLFLSLL [mut_04372]	7.68	–
MDWDYEAYHSLFLSLL [mut_04373]	2.57	–
MDYDYEAYHSLFLSLL [mut_04374]	42.41	–
MEDDYEAYHSLFLSLL [mut_04340]	16.11	–
MEVSDIESRIAALRAA	–	2.60
MFDDYEAYHSLFLSLL [mut_04341]	4.97	–
MGDDYEAYHSLFLSLL [mut_04342]	337.92	–
MHDDYEAYHSLFLSLL [mut_04343]	337.92	–
MIDDYEAYHSLFLSLL [mut_04344]	337.92	–
MKDDYEAYHSLFLSLL [mut_04345]	25.99	–
MLDDYEAYHSLFLSLL [mut_04346]	33.93	–

Sequence	hit_pair_ratio [1]	hit_pair_ratio [2]
MMDDYEAYHSLFLSLL [mut_04347]	37.58	–
MNDDYEAYHSLFLSLL [mut_04348]	14.75	–
MPDDYEAYHSLFLSLL [mut_04349]	168.96	–
MQDDYEAYHSLFLSLL [mut_04350]	169.63	–
MRDDYEAYHSLFLSLL [mut_04351]	4.58	–
MSDDYEAYHSLFLSLL [mut_04352]	67.69	–
MVDDYEAYHSLFLSLL [mut_04354]	6.06	–
MYDDYEAYHSLFLSLL [mut_04356]	67.58	–
NDDDYEAYHSLFLSLL [mut_04330]	17.85	–
NEVSDIESRIAALRAA	–	11.09
PDDDYEAYHSLFLSLL [mut_04331]	10.25	–
PEVSDIESRIAALRAA	–	7.79
QDDDYEAYHSLFLSLL [mut_04332]	3.38	–
QEVSDIESRIAALRAA	–	2.44
SDDDYEAYHSLFLSLL [mut_04334]	56.39	–
SDVSDIESRIAALRAA	–	11.31
SEASDIESRIAALRAA	–	1.11
SEESDIESRIAALRAA	–	7.79
SEFSDIESRIAALRAA	–	1.28
